Measured values from patent US20210403864A1, “METHODS AND COMPOSITIONS FOR TREATING ACTIVATED G-ALPHA Q MUTANT CANCERS OR MELANOCYTIC MALIGNANCIES” (Memorial Sloan Kettering Cancer Center, priority 2018, published 2021).
Residue numbers refer to the chain shown, from its start.

Legend:
[1] = tested on: human UVM cell lines that harbored the GNAQ^Q209L/P mutation; test: IP1 accumulation assay in UVM cells; assay type: cell-based; details: YM treatment at 24 hours
Procedure: Cells were treated with increasing concentrations of YM for 3 hours (top) and 24 hours (bottom). Error bars, s.e.m from three biological replicates, each with three technical replicates.
(§1) IP1 Accumulation Assay. IP1 concentrations in GNAQ-transfected HEK293T cells, GNAQ-expressing melan-a cells and uveal melanoma cells was measured using a competitive homogenous time resolved fluorescence (HTRF) assay (CisBio, Bedford, Mass.). Briefly, 9,000 transiently transfected-HEK293T cells, 5,000 melan-a cells and 5,000 uveal melanoma cells were seeded in low-volume 384-well plates in 7 μL media for 24 hours prior YM-254890 treatment. […] Following incubation, cells were lysed by adding 3 μL/well of d2-labeled IP1 analogue as the fluorescence acceptor and the Terbium cryptate-labeled anti-IP1 mAb as the fluorescence donor, diluted in the kit-supplied lysis buffer. The plates were incubated overnight at RT and time-resolved fluorescence signals were read using the BioTek Synergy NEO plate reader (BioTek Instruments, Winooski, Vt.) at 620 nm and 655 nm. Results were calculated as a 665 nm/620 nm signal ratio, and IP1 concentrations were interpolated from a standard curve prepared using the supplied IP1 calibrator. […] Dose-response curves and bar graphs were analyzed using GraphPad Prism 7.0 software. […]

[2] = target: T1, GNAQ^G48V (Homo sapiens, UniProt P50148, G48V); test: IP1 accumulation assay in transiently transfected HEK293T cells; assay type: cell-based; details: 24-hour treatment
T1 construct: host or cells: melan-a (immortalized mouse melanocytes), retroviral transduction with MSCV-Puro
T1 sequence (P50148 1-359 G48V): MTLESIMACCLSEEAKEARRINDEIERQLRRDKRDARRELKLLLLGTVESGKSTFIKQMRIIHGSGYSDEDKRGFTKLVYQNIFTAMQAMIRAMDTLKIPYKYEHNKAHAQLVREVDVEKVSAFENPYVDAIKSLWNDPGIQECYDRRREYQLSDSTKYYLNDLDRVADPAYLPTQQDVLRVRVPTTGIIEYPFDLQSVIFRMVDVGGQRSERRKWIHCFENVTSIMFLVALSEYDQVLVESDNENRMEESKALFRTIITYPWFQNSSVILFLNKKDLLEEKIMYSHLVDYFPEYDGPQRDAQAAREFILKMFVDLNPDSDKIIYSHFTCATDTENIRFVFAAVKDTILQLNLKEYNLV
Procedure: (§2) Cells were treated with YM at increasing doses for 24 hours. Error bars, s.e.m. from three biological replicates, each with three technical replicates.
(§3) Exogenous Gene Expression. HEK293T cells were transiently transfected to express vectors containing synthetic CYSLTR2 (Moore A R, et al., Nat Genet. 48(6):675 (2016)) and GNAQ. Genewiz was used to codon optimize these sequences for expression in mammalian cells. The human GNAQ α-subunit plasmids encoding for GNAQ mutants Q209L, R183Q and G48V were generated by Quick Change (Agilent Technologies, Santa Clara, Calif.) site-directed mutagenesis. HEK293T cells were transiently transfected with the plasmids encoding for GNAQ WT and mutants subcloned into pcDNA3.1(+) using Lipofectamine according to the manufacturer's instructions. Briefly, 9,000 HEK293T cells were transfected in low-volume 384-well plates with 11 ng of total DNA/well for 24 hours. Human cDNAs for WT CYSLTR2 and GNAQ were obtained from Origene and cloned into MSCV-Puro (Addgene plasmid #68469) for stable expression in melan-a cells via retroviral transduction with X-tremeGENE 9 (Sigma-Aldrich, St. Louis Mo.). Quikchange primers were used to introduce the various mutant constructs. All constructs were confirmed by sequencing. The primers used in the experiments described herein are provided below: […]
as §1, with “treatment. Cells were then treated with various concentrations of YM-254890 diluted in the appropriate media at 37° C. for 3 hours or 24 hours.” for “treatment.”

[3] = target: T2, GNAQ^Q209L (Homo sapiens, UniProt P50148, Q209L); test: as above; assay type: cell-based; details: 24-hour treatment
T2 construct: host or cells: melan-a (immortalized mouse melanocytes), retroviral transduction with MSCV-Puro
T2 sequence (P50148 1-359 Q209L): T1 sequence (P50148 1-359 G48V) with V48G, Q209L
Procedure: as §2, §3
as §1, with “treatment. Cells were then treated with various concentrations of YM-254890 diluted in the appropriate media at 37° C. for 3 hours or 24 hours.” for “treatment.”

[4] = target: T3, GNAQ^R183Q (Homo sapiens, UniProt P50148, R183Q); test: as above; assay type: cell-based; details: 24-hour treatment
T3 construct: host or cells: melan-a (immortalized mouse melanocytes), retroviral transduction with MSCV-Puro
T3 sequence (P50148 1-359 R183Q): T1 sequence (P50148 1-359 G48V) with V48G, R183Q
Procedure: as §2, §3
as §1, with “treatment. Cells were then treated with various concentrations of YM-254890 diluted in the appropriate media at 37° C. for 3 hours or 24 hours.” for “treatment.”

[5] = tested on: CYSLTR2^L129Q; test: as above; assay type: cell-based, human; details: 24-hour treatment
Procedure: as §2
Exogenous Gene Expression. HEK293T cells were transiently transfected to express vectors containing synthetic CYSLTR2 (Moore A R, et al., Nat Genet. 48(6):675 (2016)) and GNAQ. Genewiz was used to codon optimize these sequences for expression in mammalian cells. The human GNAQ α-subunit plasmids encoding for GNAQ mutants Q209L, R183Q and G48V were generated by Quick Change (Agilent Technologies, Santa Clara, Calif.) site-directed mutagenesis. […]
as §1, with “Mass.).” for “Mass.). Briefly, 9,000 transiently transfected-HEK293T cells, 5,000 melan-a cells and 5,000 uveal melanoma cells were seeded in low-volume 384-well plates in 7 μL media for 24 hours prior YM-254890 treatment.”, “nm.” for “nm. Results were calculated as a 665 nm/620 nm signal ratio, and IP1 concentrations were interpolated from a standard curve prepared using the supplied IP1 calibrator.”

YM-254890
inhibition of IP1 accumulation [1]: inhibited | potency of inhibition of IP1 accumulation [2]: subnanomolar potency | inhibition of signaling (IP1 accumulation) [3]: incompletely/poorly inhibited | relative sensitivity to YM (IP1 accumulation) [3]: most resistant | fold less sensitive to YM compared to CYSLTR2^L129Q and GNAQ^G48V (IP1 accumulation) [4]: ~20 fold | potency of inhibition of IP1 accumulation [5]: subnanomolar potency
